Data set [1] concerns X. fastidiosa subsp. fastidiosa IVIA 5770. It is filed as cell-based, Xylella fastidiosa. The conditions noted are these: 50 μM; strain IVIA 5770; OD595 crystal violet, 28°C, 5 days; three replicates of 10 wells ± confidence interval; listed as NAC.
Data set [2] concerns X. fastidiosa subsp. multiplex IVIA 5901.2. It counts as cell-based, Xylella fastidiosa. The conditions noted are these: 50 μM; strain IVIA 5901.2; OD595 crystal violet, 28°C, 5 days; three replicates of 10 wells ± confidence interval; listed as NAC.
For data set [3], the system named is X. fastidiosa subsp. multiplex CFBP 8173. It counts as cell-based, Xylella fastidiosa. The conditions noted are these: 50 μM; strain CFBP 8173; OD595 crystal violet, 28°C, 5 days; three replicates of 10 wells ± confidence interval; listed as NAC.
For data set [4], the system named is X. fastidiosa subsp. fastidiosa Temecula (ATCC 700964). It counts as cell-based, Xylella fastidiosa. The conditions noted are these: 50 μM; strain Temecula; OD595 crystal violet, 28°C, 5 days; three replicates of 10 wells ± confidence interval; listed as NAC.
In data set [5] the test system is X. fastidiosa subsp. fastidiosa IVIA 5387.2. It is filed as cell-based, Xylella fastidiosa.
Data set [6] shares this test system. As to conditions: 50 µM.
The subject of data set [7] is X. fastidiosa subsp. pauca DD1. It counts as cell-based, Xylella fastidiosa. The conditions noted are these: 50 μM; strain DD1; OD595 crystal violet, 28°C, 5 days; three replicates of 10 wells ± confidence interval; listed as NAC.

Structures are written as SMILES. Where “and” joins values, the source holds several entries; their conditions need not be identical. Equal values may be shown once. Read-outs that look alike come from different tables or passages of the source.

As for `CC(=O)N[C@@H](CS)C(=O)O` [N-Acetyl-L-cysteine, N-acetyl-L-cysteine], the “Biofilm formation (Ratio T/NTC)” value in data set [1] was 0.97; in data set [2] it was 1.00 ± 0.04 days; in data set [3], 0.99; in data set [4] it was 0.94 ± 0.02 c; in data set [5] (50 μM, strain IVIA 5387.2, OD595 crystal violet, 28°C, 5 days, three replicates of 10 wells ± confidence interval, listed as NAC), 0.72 and 0.72 ± 0.01 b; in data set [7], 0.42 and 0.42 ± 0.05 a. The Hemolysis is on record as 0.5 ± 0.9% in the data set on horse erythrocytes (150 µM), 0.7 ± 1.1% with horse erythrocytes (250 µM) and 1 ± 2% in the data set with horse erythrocytes (375 µM). For the same compound, in data set [5] (50 µM), the “Biofilm formation Level (antibiofilm activity)” value is recorded as “Low (low activity (ratio from 0.72 to 0.77))”. For the same compound, the “Planktonic cells Ratio (treatment/NTC)” value in data set [5] (50 µM, OD600 treated / non-treated, PD3, 96-well, 28°C, 5 days, 120 rpm, three replicates of 10 wells ± confidence interval (α=0.05)) amounted to 1.71 ± 0.03. Moreover, the “Biofilm formation Ratio (treatment/NTC)” value in data set [5] (50 µM, crystal violet OD595 treated / non-treated, PD3, 96-well, 28°C, 5 days, 120 rpm, three replicates of 10 wells ± confidence interval (α=0.05)) was 0.72 ± 0.01. Also, in data set [6] (class by Duncan's test groups), the “Bactericidal activity: Level” value is reported as “Very low (very low activity with less than 0.3 log)”. For the same compound, the “Bactericidal activity: Reduction in viability (Log N0/N)” value in data set [6] (contact test 3 h at room temperature in SCP buffer, v-qPCR with PMAxx, N0 = 10^7 CFU/mL non-treated control, mean of three replicates ± confidence interval (α=0.05)) amounted to 0.12 ± 0.01 Log N0/N.

The record behind these values is article PMC8606745 (Frontiers in Microbiology, 2021).
